Counter-ions that a name gives are not always drawn. Like-named read-outs stand apart in the source and are kept apart here.
What was measured:
[1] = test system: convulsions induced by an electric shock in Charles River CDl mice; assay: Antagonism of the convulsions induced by an electric shock; type: in vivo; conditions: 1 h; mouse; oral, 60 min before electric shock (12.5 volts, 0.3 seconds); read-out: Median effective dose (ED50) Antagonism of the electric shock
Description: (§1) The anti-epileptic effect of the products in the mouse was assessed on a model of convulsions provoked by an electric shock, and on a model of convulsions induced by a chemical agent: bicuculline.
The test was slightly modified from that of SWINYARD et al (1952) and ASAMI et al (1974). The equipment was composed of a Racia shock generator provided with two ocular electrodes delivering a current of 12.5 volts for 0.3 seconds. The batches were constituted by 10 Charles River CDl mice, weighing between 20 and 24 g. The products were administered by the oral route, 60 minutes before the electric shock. The animals presenting no tonic extension of the rear limbs were considered as being protected from the convulsive crisis.

[2] = test system: spontaneous motility of female Charles River CDl mice; assay: Effect of the products on the spontaneous motility (actimeter test); type: in vivo; conditions: Mus musculus, po, 0.75 h, 45 min after administration, recorded 10 min, vs controls, * p 0,05, ** p 0,01 (Student test), read-out: Locomotor activity Score (p.cent/controls); for change in vivo at 100 mg/kg: 100 mg/kg p.o.; for change in vivo at 250 mg/kg: 250 mg/kg p.o.
Description: The sedative effect is translated by the reduction of the spontaneous motility of the animals. This was measured by the actimeter test developed by BOISSIER and SIMON (1965). The equipment was composed of actimetric cages, of the Apelab type (26×21.5×10 cm), through which pass two light rays which act on a photoelectric cell. The batches were constituted by 12 female Charles River CDl mice weighing between 20 and 24 g. The animals were placed individually in the cages 45 minutes after the oral administration of the products at the dose of 250 mg/kg or at the dose of 100 mg/kg. Each passage through a light beam was counted by an individual meter. The scores corresponding to the movements of the animals were recorded for 10 minutes and compared with the scores made by the batches of control animals, treated solely by the vehicle (0.1N HCl).

[3] = Lethal dose in the mouse after acute administration; conditions: in vivo; for mortality at 72 h: po, read-out: % of toxicity (animals which die)
Description: The products were administered by the oral route to batches of 5 female Charles River CDl mice, weighing between 20 and 24 g. They were solubilized in 0.1N HCl.
Toxicity was noted during the 72 hours following administration of the products. The LD50 was calculated for two products.
The results expressed in percentage of animals which die in the […] consecutive to the oral administration of the products are noted in the preceding Table.

[4] = test system: convulsions provoked by bicuculline in Charles River CDl mice; assay: Antagonism of the convulsions provoked by bicuculline; type: in vivo; conditions: mouse; oral, 60 min before bicuculline 0.8 mg/kg i.v.; read-out: Median effective dose (ED50) Antagonism of Bicuculline
Description: as §1
The batches were constituted by 10 Charles River CDl mice, weighing between 20 and 22 g. The products were administered by the oral route, 60 minutes before the bicuculline (0.8 mg/kg, i.v.). The appearance of tonic convulsions was noted during the 60 minutes following the injection of the bicuculline.

[5] = test system: loss of the turn-around reflex in Charles River CDl mice; assay: Potentialization of narcosis by pentobarbital; type: in vivo; conditions: po; mouse; product 60 min before pentobarbital 20 mg/kg i.p.
Description: With a view to assessing the hypnogenic power of the products, we have studied their capacity to potentialize the effects of a subnarcotic dose of pentobarbital in the mouse. The batches were constituted by 10 Charles River CDl mice, weighing between 20 and 24 g. The pentobarbital (20 mg/kg, i.p.) was administered 60 minutes after administration of the products. The criterion of sleep-induction retained was the loss of the turn-around reflex.

Structure (SMILES) | ED50 [1] [mg/kg] | change in vivo at 100 mg/kg [2] [%] | change in vivo at 250 mg/kg [2] [%] | mortality at 72 h ([3]; 250 mg/kg p.o.) [%] | mortality at 72 h ([3]; 500 mg/kg p.o.) [%] | mortality at 72 h ([3]; 1000 mg/kg p.o.) [%] | ED50 [4] [mg/kg] | LD50 at 72 h ([3]; oral, calculated, read-out: LD50 (DL50)) [mg/kg] | ED50 [5] [mg/kg]
OC1CCN(c2ccc(-c3cccc(C(F)(F)F)c3)nn2)CC1 [CM 40857] | 63 | -87 |  |  |  |  |  |  | 
OC1CCN(c2ncc(Cl)c(-c3ccccc3Cl)n2)CC1 [CM 40858, Hydrobromide of 5-chloro-6-(2-chlorophenyl)-2-(4-hydroxy-piperidino)pyrimidine] | 49 |  | -20 | 0 | 0 | 0 |  |  | 
OC1CCN(c2ccc(-c3ccccc3Cl)nn2)CC1 [CM 40907, 3-(4-hydroxy-piperidino)-6-(2-chlorophenyl)pyridazine] | 16 | -66 |  |  |  |  | 38 | 807 | 96
OC1CCN(c2ccc(-c3ccc(Cl)cc3)nn2)CC1 [CM 41127] | 28 | -68 |  | 0 | 0 |  | 98 |  | 
OC1CCN(c2ccc(-c3ccc(Cl)c(Cl)c3)nn2)CC1 [SR 41155] |  | -82 |  | 0 | 100 | 100 |  |  | 20
OC1CCN(c2ccc(-c3ccccc3)nn2)CC1 [SR 41171] | 86 | -34 |  | 0 | 0 | 100 | 83 |  | 
CCCC(=O)OC1CCN(c2ccc(-c3ccccc3Cl)nn2)CC1 [SR 41172, 3-(4-butyroyloxypiperidino)-6-(2-chlorophenyl)-pyridazine] | 28 | -32 |  | 0 | 0 | 100 | 39 |  | 
O=C(OC1CCN(c2ccc(-c3ccccc3Cl)nn2)CC1)C1CC1 [SR 41174] | 92 | -15 |  |  |  |  |  |  | 
OC1CCN(c2ccc(-c3ccc(F)cc3)nn2)CC1 [SR 41184] | 48 | -91 |  | 0 | 60 | 100 |  |  | 
COc1ccc(-c2ccc(N3CCC(O)CC3)nn2)cc1 [SR 41185] |  |  | -78 | 0 | 0 | 0 |  |  | 
OC1CCN(c2ccc(-c3cccc(Cl)c3)nn2)CC1 [SR 41188] | 45 | -77 |  | 0 | 0 | 60 |  |  | 
OC1CCN(c2ccc(-c3ccccc3Cl)nn2)C1 (centres unmarked) [SR 41254] |  | -34 |  | 0 | 0 | 20 |  |  | 
OCC1CCN(c2ccc(-c3ccccc3Cl)nn2)C1 (centres unmarked) [SR 41259] |  | -19 |  |  |  |  |  |  | 
OCCC1CCN(c2ccc(-c3ccccc3Cl)nn2)CC1 [SR 41261] |  | -27 |  |  |  |  |  |  | 
